According to US7851474B2, “Dipiperazinyl ketones and related analogues” (Neurogen Corporation, priority 2005, dated 2010):

These compounds were tested against T1, chimeric human H3 receptor (Homo sapiens, UniProt Q9Y5N1, E19D) (assay: Chimeric human H3 receptor GTP binding assay (agonist-stimulated GTP-gamma35S binding, Example 7)). Settings: not given.
T1 construct: made in house; host or cells: Sf9 insect cells (baculovirus infection); P2 membrane preparation
Assay type: biochemical
Procedure, shortened: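 IC50 values come from non-linear regression of dose-response curves of filter-bound GTP-gamma^35S, counted by scintillation. Membranes were from infected Sf9 cells carrying receptor plus G-protein subunits, 35 μg/tube, with 10 μM GDP present.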

T1 sequence (Q9Y5N1 with tags, fused parts or gaps E19D): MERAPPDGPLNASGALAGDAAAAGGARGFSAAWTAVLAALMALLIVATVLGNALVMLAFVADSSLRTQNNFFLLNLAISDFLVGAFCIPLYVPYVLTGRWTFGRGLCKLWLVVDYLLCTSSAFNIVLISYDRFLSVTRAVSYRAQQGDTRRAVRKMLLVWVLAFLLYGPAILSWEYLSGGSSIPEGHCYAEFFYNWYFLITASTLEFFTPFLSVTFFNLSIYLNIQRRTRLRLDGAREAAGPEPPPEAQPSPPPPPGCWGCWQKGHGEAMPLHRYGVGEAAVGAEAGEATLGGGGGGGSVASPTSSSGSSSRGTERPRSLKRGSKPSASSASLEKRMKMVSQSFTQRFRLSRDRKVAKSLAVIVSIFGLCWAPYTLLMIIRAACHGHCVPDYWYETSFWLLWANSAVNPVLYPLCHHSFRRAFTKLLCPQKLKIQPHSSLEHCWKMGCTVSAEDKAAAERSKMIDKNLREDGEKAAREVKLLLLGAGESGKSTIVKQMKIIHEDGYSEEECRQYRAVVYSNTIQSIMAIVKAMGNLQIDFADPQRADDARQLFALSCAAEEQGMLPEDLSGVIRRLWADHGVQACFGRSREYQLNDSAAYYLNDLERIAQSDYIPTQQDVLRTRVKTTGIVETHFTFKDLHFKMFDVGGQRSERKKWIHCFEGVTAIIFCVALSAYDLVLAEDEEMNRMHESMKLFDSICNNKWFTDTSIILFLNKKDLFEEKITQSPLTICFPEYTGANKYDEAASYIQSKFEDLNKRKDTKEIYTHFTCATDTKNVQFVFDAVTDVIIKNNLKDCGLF

SMILES	Ki
CC(=O)C1(c2ccccc2)CCN(CC(=O)N2CCN(C3CCC3)CC2)CC1 [Compound 478, 1-{1-[2-(4-cyclobutylpiperazin-1-yl)-2-oxoethyl]-4-phenylpiperidin-4-yl}ethanone]	< 1000 nM

Same assay, conditions: "*" in Ki of Table II; assay of Example 7; read-out: Ki

SMILES	Ki
CC(=O)c1ccc(-c2ccc(N3CCN(CC(=O)N4CCN(C5CCC5)CC4)CC3)nn2)cc1 [Compound 459, 1-[4-(6-{4-[2-(4-cyclobutylpiperazin-1-yl)-2-oxoethyl]piperazin-1-yl}pyridazin-3-yl)phenyl]ethanone]	< 1000 nM
O=C(CN1CCN(c2ccc(S(=O)(=O)Cc3ccccc3)cc2)CC1)N1CCN(C2CCC2)CC1 [Compound 460, 1-[4-(benzylsulfonyl)phenyl]-4-[2-(4-cyclobutylpiperazin-1-yl)-2-oxoethyl]piperazine]	< 1000 nM
CC(=O)c1ccc(N2CCN(CC(=O)N3CCN(C4CCC4)CC3)CC2)cc1C(F)(F)F [Compound 461, 1-[4-{4-[2-(4-cyclobutylpiperazin-1-yl)-2-oxoethyl]piperazin-1-yl}-2-(trifluoromethyl)phenyl] ethanone]	< 1000 nM
CC(=O)c1ccc(N2CCN(CC(=O)N3CCN(C4CCC4)CC3)CC2)c(C(F)(F)F)c1 [Compound 462, 1-[4-{4-[2-(4-cyclobutylpiperazin-1-yl)-2-oxoethyl]piperazin-1-yl}-3-(trifluoromethyl)phenyl] ethanone]	< 1000 nM
O=C(CN1CCN(c2ccc(-c3ccc(Cl)c(C(F)(F)F)c3)cc2)CC1)N1CCN(C2CCC2)CC1 [Compound 463, 1-[4′-chloro-3′-(trifluoromethyl)biphenyl-4-yl]-4-[2-(4-cyclobutylpiperazin-1-yl)-2-oxoethyl]piperazine]	< 1000 nM
O=C(CN1CCN(c2ccc(Cl)c(C(F)(F)F)c2)CC1)N1CCN(C2CCC2)CC1 [Compound 464, 1-[4-chloro-3-(trifluoromethyl)phenyl]-4-[2-(4-cyclobutylpiperazin-1-yl)-2-oxoethyl]piperazine]	< 1000 nM
O=C(CN1CCN(c2ccc(Cl)c(C(F)(F)F)c2)CC1)N1CCN(C2CCCC2)CC1 [Compound 466, 1-[4-chloro-3-(trifluoromethyl)phenyl]-4-[2-(4-cyclopentylpiperazin-1-yl)-2-oxoethyl]piperazine]	< 1000 nM
CC(C)N1CCN(C(=O)CN2CCN(c3ccc(Cl)c(C(F)(F)F)c3)CC2)CC1 [Compound 467, 1-[4-chloro-3-(trifluoromethyl)phenyl]-4-[2-(4-isopropylpiperazin-1-yl)-2-oxoethyl]piperazine]	< 1000 nM
CC(C)N1CCN(C(=O)CN2CCN(c3ccc(F)c(C(F)(F)F)c3)CC2)CC1 [Compound 468, 1-[4-fluoro-3-(trifluoromethyl)phenyl]-4-[2-(4-isopropylpiperazin-1-yl)-2-oxoethyl]piperazine]	< 1000 nM
O=C(CN1CCC(N2CCCCCC2)CC1)N1CCN(C2CCC2)CC1 [Compound 479, 1-{1-[2-(4-cyclobutylpiperazin-1-yl)-2-oxoethyl]piperidin-4-yl}azepane]	< 1000 nM
O=C(CN1CCC(N2CCCCCC2)CC1)N1CCN(C2CCCCC2)CC1 [Compound 480, 1-{1-[2-(4-cyclohexylpiperazin-1-yl)-2-oxoethyl]piperidin-4-yl}azepane]	< 1000 nM
CCC(C)N1CCN(C(=O)CN2CCC(N3CCCCCC3)CC2)CC1 (stereo not shown) [Compound 481, 1-{1-[2-(4-sec-butylpiperazin-1-yl)-2-oxoethyl]piperidin-4-yl}azepane]	< 1000 nM
CC(=O)N1CCN(CC(=O)N2CCN(C3CCC3)CC2)CC1 [Compound 483, 1-acetyl-4-[2-(4-cyclobutylpiperazin-1-yl)-2-oxoethyl]piperazine]	< 1000 nM
CC(=O)N1CCN(CC(=O)N2CCN(C3CCCCC3)CC2)CC1 [Compound 484, 1-acetyl-4-[2-(4-cyclohexylpiperazin-1-yl)-2-oxoethyl]piperazine]	< 1000 nM
CC(=O)N1CCN(CC(=O)N2CCN(C3CCCC3)CC2)CC1 [Compound 485, 1-acetyl-4-[2-(4-cyclopentylpiperazin-1-yl)-2-oxoethyl]piperazine]	< 1000 nM
